According to patent publication US9194863B2, “Treatment of pain” (priority 2011, dated 2015):
pEC50: −log10 of the molar value. Values belong to the compound of their own block, whether it stands above or below them.

Key:
[1] = system: DRG neurons; test: Fura-2 intracellular Ca2+ imaging in isolated DRG neurons; format: cell-based, mouse; details: for fraction of sensitive DRG neurons in Trpm3−/− preparations versus Trpm3+/+: Trpm3−/− mice
Procedure: (§1) Human embryonic kidney cells, HEK293T, were grown in Dulbecco's modified Eagle's medium (DMEM) containing 10% (v/v) human serum, 2 mM L-glutamine, 2 units/ml penicillin, and 2 mg/ml streptomycin at 37° C. in a humidity-controlled incubator with 10% CO2. HEK293T cells were transiently transfected with murine TRPM3α2 (accession number AJ 544535) in the bicistronic pCAGGS/IRES-GFP vector, using Mirus TransIT-293 (Mirus corporation; Madison USA). Transfected cells were visualized by green fluorescence protein (GFP) expression whereas GFP negative cells from the same batch were used as controls. TG and DRG neurons from adult (postnatal weeks 8-12) male mice were isolated as described previously (Karashima et al., 2007). HEK293T cells stably transfected with TRPM3α2 were developed using the Flp-In System (Invitrogen).
(§2) Fura-2-based ratiometric intracellular Ca^2+ measurements were performed as described previously (Vriens et al., 2007). The following procedure was used to distinguish stimulus-induced responses from background variations in fluorescence. First, we calculated the time derivative of the fluorescence ratio (dRatio/dt), and the standard deviation (SD) of dRatio/dt in the absence of any stimulus. A positive response was noted when a stimulus caused an increase of dRatio/dt exceeding 5×SD. […] For every condition, a minimum of 100 cells derived from at least three separated isolations and in at least twelve independent measurements were analyzed.

[2] = target: T1, TRPV1 (Homo sapiens, UniProt Q8NER1); test: Ca2+ imaging of TRPV1-mediated responses in the presence of AMG 9810; format: cell-based
T1 construct: expressed in transfected cells; host or cells: HEK293T, transient
T1 sequence (Q8NER1 whole entry, species assumed): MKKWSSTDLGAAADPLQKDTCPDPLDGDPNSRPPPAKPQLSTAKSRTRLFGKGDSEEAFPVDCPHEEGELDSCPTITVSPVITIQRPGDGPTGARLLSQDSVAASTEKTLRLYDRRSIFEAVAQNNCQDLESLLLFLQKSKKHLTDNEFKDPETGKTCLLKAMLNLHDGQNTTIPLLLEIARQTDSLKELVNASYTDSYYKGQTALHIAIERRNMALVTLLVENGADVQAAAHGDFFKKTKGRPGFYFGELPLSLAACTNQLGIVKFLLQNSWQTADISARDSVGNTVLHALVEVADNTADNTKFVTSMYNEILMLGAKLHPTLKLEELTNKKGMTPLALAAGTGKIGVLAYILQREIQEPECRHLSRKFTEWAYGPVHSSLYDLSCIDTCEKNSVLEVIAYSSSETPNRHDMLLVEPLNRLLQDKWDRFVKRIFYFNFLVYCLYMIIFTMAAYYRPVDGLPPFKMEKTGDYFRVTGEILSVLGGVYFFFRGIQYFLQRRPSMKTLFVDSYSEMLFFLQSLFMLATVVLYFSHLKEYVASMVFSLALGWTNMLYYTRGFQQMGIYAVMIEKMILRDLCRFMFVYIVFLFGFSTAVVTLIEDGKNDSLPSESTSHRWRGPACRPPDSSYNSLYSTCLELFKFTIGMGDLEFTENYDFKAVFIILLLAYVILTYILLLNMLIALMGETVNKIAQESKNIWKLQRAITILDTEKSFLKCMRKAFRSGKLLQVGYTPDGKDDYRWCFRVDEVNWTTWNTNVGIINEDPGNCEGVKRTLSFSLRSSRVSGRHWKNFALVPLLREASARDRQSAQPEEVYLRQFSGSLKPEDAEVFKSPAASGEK

[3] = target: T2, TRPM3 (Mus musculus, UniProt J9SQF3); test: Ca2+ imaging of TRPM3-mediated responses in the presence of AMG 9810; format: cell-based
T2 sequence (J9SQF3 1-1709 isoform J9SQF3-12): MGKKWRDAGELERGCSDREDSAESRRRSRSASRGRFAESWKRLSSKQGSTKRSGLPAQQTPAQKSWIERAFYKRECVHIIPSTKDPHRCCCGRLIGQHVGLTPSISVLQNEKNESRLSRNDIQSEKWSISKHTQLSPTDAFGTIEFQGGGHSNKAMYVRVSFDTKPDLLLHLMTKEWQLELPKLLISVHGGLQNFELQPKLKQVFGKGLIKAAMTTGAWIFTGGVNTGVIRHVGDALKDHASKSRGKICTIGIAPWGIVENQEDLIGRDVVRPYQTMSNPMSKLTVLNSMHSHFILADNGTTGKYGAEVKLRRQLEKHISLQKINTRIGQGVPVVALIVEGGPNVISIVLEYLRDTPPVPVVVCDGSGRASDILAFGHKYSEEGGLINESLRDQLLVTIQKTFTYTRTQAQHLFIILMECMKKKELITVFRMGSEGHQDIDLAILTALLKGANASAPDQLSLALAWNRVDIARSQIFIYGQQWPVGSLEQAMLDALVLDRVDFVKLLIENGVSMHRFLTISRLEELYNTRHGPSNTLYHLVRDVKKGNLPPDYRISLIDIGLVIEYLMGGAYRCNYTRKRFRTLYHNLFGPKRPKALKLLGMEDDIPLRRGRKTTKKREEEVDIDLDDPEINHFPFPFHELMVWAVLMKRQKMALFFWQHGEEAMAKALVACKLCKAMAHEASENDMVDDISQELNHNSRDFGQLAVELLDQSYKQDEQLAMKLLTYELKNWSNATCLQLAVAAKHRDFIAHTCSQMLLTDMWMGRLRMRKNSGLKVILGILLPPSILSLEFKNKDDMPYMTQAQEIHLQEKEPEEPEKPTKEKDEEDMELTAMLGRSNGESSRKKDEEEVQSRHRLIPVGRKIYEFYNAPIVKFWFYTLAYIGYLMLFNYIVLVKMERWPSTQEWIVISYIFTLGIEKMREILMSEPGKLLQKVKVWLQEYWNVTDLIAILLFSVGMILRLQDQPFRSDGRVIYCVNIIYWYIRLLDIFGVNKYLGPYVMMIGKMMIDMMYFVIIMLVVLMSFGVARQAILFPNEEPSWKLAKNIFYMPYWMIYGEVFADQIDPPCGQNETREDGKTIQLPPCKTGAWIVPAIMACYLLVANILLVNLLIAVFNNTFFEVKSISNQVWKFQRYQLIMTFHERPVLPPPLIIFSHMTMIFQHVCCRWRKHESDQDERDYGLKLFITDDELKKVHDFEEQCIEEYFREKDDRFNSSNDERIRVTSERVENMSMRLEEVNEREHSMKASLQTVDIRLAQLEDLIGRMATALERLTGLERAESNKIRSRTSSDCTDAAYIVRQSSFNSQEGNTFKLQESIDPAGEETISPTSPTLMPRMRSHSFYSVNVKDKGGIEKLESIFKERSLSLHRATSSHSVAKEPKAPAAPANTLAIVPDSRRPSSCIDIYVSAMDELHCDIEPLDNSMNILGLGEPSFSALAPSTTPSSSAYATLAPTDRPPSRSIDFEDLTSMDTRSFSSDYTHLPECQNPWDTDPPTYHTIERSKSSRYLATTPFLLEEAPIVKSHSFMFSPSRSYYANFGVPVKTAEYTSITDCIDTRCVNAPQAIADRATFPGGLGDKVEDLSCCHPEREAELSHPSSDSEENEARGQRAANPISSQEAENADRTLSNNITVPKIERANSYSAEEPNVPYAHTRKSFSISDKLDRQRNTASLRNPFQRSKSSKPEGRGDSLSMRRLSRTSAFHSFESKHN
Procedure: as §2

[4] = system: TG neurons; test: Fura-2 intracellular Ca2+ imaging in isolated TG neurons; format: cell-based, mouse; details: for fraction of sensitive TG neurons in Trpm3−/− preparations versus Trpm3+/+: Trpm3−/− mice
Procedure: as §1, §2

[5] = system: TG neurons; test: Whole-cell patch-clamp on TG neurons; format: cell-based, mouse
Procedure: (§3) Whole-cell membrane currents were measured with an EPC-10 (HEKA Elektronik, Lambrecht, Germany). The sampling rate was 20 kHz and currents were digitally filtered at 2.9 kHz. For recordings on HEK293T cells, the extracellular solution contained (in mM): 138 NaCl, 5.4 KCl, 2 MgCl2, 2 CaCl2, 10 glucose, 10 HEPES (pH 7.2 with NaOH), and the pipette solution contained (in mM): 100 CsAsp, 45 CsCl, 10 EGTA, 10 HEPES, 1 MgCl (pH 7.2 with CsOH). For recordings on sensory neurons, the extracellular solution contained (in mM): 140 NaCl, 4 KCl, 2 MgCl2, 100 nM TTX, 10 TRIS (pH 7.4 with HCl), and the pipette solution contained (in mM): 140 CsCl, 0.6 MgCl2, 1 EGTA, 10 HEPES, 5 TEA (pH 7.2 with CsOH). To determine the I-V relationship of PS induced currents in neurons, all measurements were performed under monovalent free extracellular conditions in order to suppress other cationic conductances present in DRG neurons. The extracellular solution contained in mM 2 CaCl2, 2 MgCl2, 10 HEPES, 280 D-Mannitol (pH 7.2 with NMDG).

[6] = system: mice; test: Nocifensive behavior after injection into the plantar skin of the hind paw; format: in vivo, mouse
Procedure: (§4) Hind paw injections, drinking tests, thermal gradient tests, temperature choice tests, hot plate, cold plate, tail clip and tail immersion assays were performed as previously described (Cao et al., 1998; Caterina et al., 2000; Karashima et al., 2009; Mocrich et al., 2005). To evoke inflammatory hyperalgesia, Complete Freund's Adjuvant (CFA, Sigma) (50 μl) was injected intraplantarly in both hindpaws 24 h before behavioral testing. Corn oil was used as vehicle control. To obtain pharmacological inhibition of TRPV1, AMG 9810 (Tocris Bioscience) dissolved in DMSO was injected i.p at 3 mg/kg during consecutive 7 days (Gavva et al., 2007; Gavva et al., 2005). DMSO was used as vehicle control. All animal experiments were carried out in accordance with the European Union Community Council guidelines and were approved by the local ethics committee.

[7] = system: mice; test: Aversive drinking test; format: in vivo, mouse; details: PS 750 μM in drinking water
Procedure: To evaluate the contribution of TRPM3 to trigeminal nociception, we used an aversive drinking test (Caterina et al., 2000). Over a period of 3 days, mice were allowed to drink from a bottle of water for only 1 hour/day. On the fourth day, this solution was supplemented with PS (750 μM). In Trpm3^+/+ mice, this evoked a modest but significant aversion, as evidenced by a 30% reduction in consumed water volume (FIG. 4C).
as §4

[8] = target: T3, TRPM3α2 (Mus musculus, UniProt J9SQF3); test: Intracellular Ca2+ responses in HEK293T cells transiently expressing TRPM3; format: cell-based, murine; details: PS 20 μM, capsaicin 2 μM
T3 construct: expressed in transfected cells; host or cells: HEK293T, transient
T3 sequence (J9SQF3 1-1709 isoform J9SQF3-12): as above
Procedure: as §1
as §2, with “stimulus.” for “stimulus. A positive response was noted when a stimulus caused an increase of dRatio/dt exceeding 5×SD.”

[9] = target: T3, TRPM3α2; test: 96 well plate Fluo-4 assay of temperature-dependent Ca2+ responses, HEK293T stably expressing TRPM3; format: cell-based, murine; details: PS at 10 μM
Procedure: To determine an average temperature-response relation for TRPM3, we also used a fluo-4-based assay using 96 well plates and the 7500 Real-Time PCR system (Applied Biosystems). HEK293T cells stably expressing murine TRPM3α2 (FIG. 9B) or non transfected HEK293T cells were loaded with Fluo-4-AM for 30 min, trypsinized, centrifuged, resuspended in a solution containing (in mM) 150 NaCl, 6 KCl, 2 MgCl2, 2 CaCl2, and 10 HEPES (pH 7.4 with NaOH) and transferred to a 96-well plate (at 15000-25000 cells/well; 50 μl). When indicated, PS (10 μM) was added to the wells. Fluo-4 fluorescence was measured while the well temperature was raised from 16 to 43° C. in 3-degrees steps. Background-subtracted fluorescence signals were used to calculate temperature-induced changes in fluorescence as ΔF/F16 °C, where F16 °C is the background corrected fluorescence at 16° C. and ΔF=F−F16 °C. The neurosteroids pregnenolone sulphate, progesterone and the TRPV1 activator capsaicin (all Sigma) were applied at indicated concentrations from a respectively 100 mM, 250 mM and 10 mM stock solution in DMSO.

[10] = target: T2, TRPM3; test: Intracellular Ca2+ increase by low doses of PS at room temperature and 37° C., HEK293T stably expressing TRPM3; format: cell-based, murine; design: expressed in transfected cells; details: 100 nM PS
Procedure: as §1
as §2, with “stimulus.” for “stimulus. A positive response was noted when a stimulus caused an increase of dRatio/dt exceeding 5×SD.”

[11] = target: T2, TRPM3; test: Whole-cell current measurements in TRPM3-expressing HEK293T cells; format: cell-based, murine; design: expressed in transfected cells; details: PS 5 μM
Procedure: as §3

[12] = target: T1, TRPV1; test: Intracellular Ca2+ responses in HEK293T cells transiently expressing TRPV1; format: cell-based; details: PS 20 μM, capsaicin 2 μM
Procedure: as §2

[13] = target: TRPA1 (Homo sapiens, UniProt O75762); details: read-out: EC50 as agonist of TRPA1; cited from earlier work
Chain of TRPA1 (O75762 whole entry, species assumed): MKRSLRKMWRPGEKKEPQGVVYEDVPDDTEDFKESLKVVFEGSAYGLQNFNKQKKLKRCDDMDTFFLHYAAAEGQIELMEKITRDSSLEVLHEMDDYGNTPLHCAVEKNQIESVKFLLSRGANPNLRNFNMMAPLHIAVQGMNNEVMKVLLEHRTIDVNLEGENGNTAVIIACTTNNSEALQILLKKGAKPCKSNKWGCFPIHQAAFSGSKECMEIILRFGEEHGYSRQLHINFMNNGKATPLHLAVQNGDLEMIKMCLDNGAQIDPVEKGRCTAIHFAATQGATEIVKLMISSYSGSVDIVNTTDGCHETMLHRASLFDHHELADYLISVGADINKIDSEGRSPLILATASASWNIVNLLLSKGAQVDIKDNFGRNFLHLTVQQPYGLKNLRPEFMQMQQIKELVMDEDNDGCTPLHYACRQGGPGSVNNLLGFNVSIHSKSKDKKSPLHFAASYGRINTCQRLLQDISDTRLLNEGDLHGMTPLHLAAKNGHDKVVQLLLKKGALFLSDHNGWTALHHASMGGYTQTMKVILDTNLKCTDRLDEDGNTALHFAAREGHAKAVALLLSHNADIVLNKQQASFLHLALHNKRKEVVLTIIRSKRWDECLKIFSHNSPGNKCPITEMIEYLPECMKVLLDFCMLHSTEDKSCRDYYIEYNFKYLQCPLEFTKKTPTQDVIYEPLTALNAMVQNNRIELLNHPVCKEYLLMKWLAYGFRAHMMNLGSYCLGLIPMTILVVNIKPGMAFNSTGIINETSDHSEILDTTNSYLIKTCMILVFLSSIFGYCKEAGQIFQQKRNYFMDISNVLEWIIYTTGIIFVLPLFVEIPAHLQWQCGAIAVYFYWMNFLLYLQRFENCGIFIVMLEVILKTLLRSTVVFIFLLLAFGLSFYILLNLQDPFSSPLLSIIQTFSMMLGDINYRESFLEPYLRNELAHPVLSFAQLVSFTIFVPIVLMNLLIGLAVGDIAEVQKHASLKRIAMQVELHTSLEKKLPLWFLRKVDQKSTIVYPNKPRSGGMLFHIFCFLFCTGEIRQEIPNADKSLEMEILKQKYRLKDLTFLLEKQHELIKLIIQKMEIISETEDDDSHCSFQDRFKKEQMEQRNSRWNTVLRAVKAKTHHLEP

[14] = target: T2, TRPM3; details: cited from earlier work
[15] = Trpv1−/−, Trpa1−/− and combined Trpv1−/−/Trpa1−/− mice
[16] = Trpm3+/+ mice, PS 2.5 and 5 nmol/paw, progesterone 25 nmol/paw

- TRPV1-mediated heat (42° C.) and capsaicin (2 μM) responses [2]: full inhibition
- TRPM3-mediated heat (42° C.) and PS (40 μM) responses [3]: unaltered
SMILES: CC(C)(C)c1ccc(/C=C/C(=O)Nc2ccc3c(c2)OCCO3)cc1 [AMG 9810, (E)-3-(4-t-butylphenyl)-N-(2,3-dihydrobenzo[b][1,4]dioxin-6-yl)acrylamide]
- effect on percentage of heat responders in DRG neurons ([1]; AMG 9810 5 μM): significantly reduced
- effect on capsaicin responses in DRG neurons ([1]; AMG 9810 5 μM, Trpm3+/+ and Trpm3−/− DRG neurons): completely eliminated
- heat-responsive cells remaining after treatment ([1]; Trpm3−/− neurons, AMG 9810 5 μM): substantial fraction of heat-responsive cells

SMILES: C=CCN=C=S [MO, mustard oil]
- fraction of sensitive DRG neurons in Trpm3−/− preparations versus Trpm3+/+ [1]: not changed
- fraction of sensitive TG neurons in Trpm3−/− preparations versus Trpm3+/+ [4]: not changed

SMILES: CC(=O)C1CCC2C3CC=C4CC(OS(=O)(=O)O)CCC4(C)C3CCC12C (centres unmarked) [PS, pregnenolone sulphate]
- DRG neurons with robust and reversible calcium signals ([1]; Trpm3+/+ mice, n=303, PS 10 μM): 58%
- fraction of sensitive DRG neurons in Trpm3−/− preparations versus Trpm3+/+ [1]: drastically decreased
- responses in DRG neurons from TRPV1/TRPA1 knockout mice [1, 15]: conserved
- TG neurons with robust and reversible calcium signals ([4]; Trpm3+/+ mice, n=273, PS 10 μM): 57%
- fraction of sensitive TG neurons in Trpm3−/− preparations versus Trpm3+/+ [4]: drastically decreased
- responses in TG neurons from TRPV1/TRPA1 knockout mice [4, 15]: conserved
- TG neurons with inward currents of more than 10 pA ([5]; Trpm3+/+ mice, 15 of 23): 65%
- TG neurons with inward currents of more than 10 pA ([5]; Trpm3−/− mice, 0 of 21): never observed
- TG neurons with inward currents of more than 10 pA ([5]; Trpv1−/−/Trpa1−/− mice, 9 of 17): 53%
- nocifensive behavior (paw licking and lifting) [6, 16]: evoked strong nocifensive behavior
- nocifensive behavior (paw licking and lifting) ([6]; Trpm3−/− mice): completely lacked this nocifensive response
- nocifensive behavior (paw licking and lifting) ([6]; combined Trpv1−/−/Trpa1−/− knockout mice): elicited a nocifensive response that was similar to that observed in Trpm3^+/+ mice
- reduction in consumed water volume ([7]; Trpm3+/+ mice): 30%
- aversive response in drinking test ([7]; Trpm3−/− mice): no aversive response
- intracellular Ca2+ response of TRPM3-expressing cells [8]: robust responses
- shift of the thermal response profile to lower temperatures [9]: 6.1±0.4 degrees
- Ca2+ response to PS ([10]; 37° C.): evoked robust responses
- Ca2+ response to PS ([10]; room temperature): subthreshold
- current response to a low dose of PS at higher temperatures [11]: strongly potentiated

- intracellular Ca2+ response of TRPM3-expressing cells [8]: insensitive
- intracellular Ca2+ response of TRPV1-expressing cells [12]: responded
SMILES: COc1cc(CNC(=O)CCCC/C=C/C(C)C)ccc1O [capsaicin]
- fraction of sensitive DRG neurons in Trpm3−/− preparations versus Trpm3+/+ [1]: not changed
- fraction of sensitive TG neurons in Trpm3−/− preparations versus Trpm3+/+ [4]: not changed
- TG neurons responding to capsaicin ([5]; Trpm3+/+ mice, 13 of 23): 57%
- TG neurons responding to capsaicin ([5]; Trpm3−/− mice, 11 of 21): 53%
- nocifensive behavior (paw licking and lifting) ([6]; Trpm3−/− mice): evoked the normal nocifensive behavior

SMILES: COC(=O)C1=C(C)NC(C)=C(C(=O)OC)C1c1ccccc1[N+](=O)[O-] [nifedipine]
- pEC50 [13]: 6.40
- pEC50 ([14]; read-out: EC50 as agonist of TRPM3): 4.52

SMILES: CC(=O)[C@H]1CC[C@H]2[C@@H]3CCC4=CC(=O)CC[C@]4(C)[C@H]3CC[C@]12C [progesterone]
- nocifensive behavior (paw licking and lifting) [6, 16]: did not evoke measurable nociceptive responses
- nocifensive behavior (paw licking and lifting) ([6]; Trpm3−/− mice): did not evoke measurable nociceptive responses
- TRPM3 agonist activity [14]: no TRPM3 agonist activity
